According to patent publication US20250032417A1, “LYOPHILIZED METOLAZONE FORMULATION FOR PARENTERAL ADMINISTRATION” (Hyloris Developments SA, priority 2023, published 2025):
Converted amounts (≈) assume the structure as drawn. “And” between values parts separate entries of the source, which are not always exact repeats. Equal values may be shown once.

What was measured:
[1] = Saturation solubility of metolazone in TBA:water ratios; assay type: physicochemical; conditions: for solubility: aqueous with cosolvent or surfactant or cyclodextrin, thermodynamic from solid
Description: Saturation solubility study of metolazone was conducted in different water to tertiary butyl alcohol ratios ranging from 20-40% of TBA and 80-60% water. The study was conducted in triplicate.

[2] = Tertiary butyl alcohol-water solubility trials (visual); assay type: physicochemical
Description: Before initiating solvent based Lyophilization trials, a detail assessment of metolazone solubility in Water+TBA (Tertiary butyl alcohol) was carried out to identify optimum ratio of TBA:Water.

[3] = 25° C.; cited from earlier work
[4] = Diluent selection study: solubility of metolazone in diluent mixtures; assay type: physicochemical
Description: The diluent selection study was conducted to select the best diluent combination for metolazone. The following components were evaluated in combination with phosphate buffer to check the solubility of metolazone and to observe the solution clarity.
Procedure for Example no ITT-1 to 111-5: An excess amount of drug substance PSD (particle size distribution) 10 micron (60 mg) was added to the 20 mL diluent mixtures specified in Ex. III-1 to II-5 so that the theoretical concentration was 3 mg/mL. After drug addition, these samples were sonicated up to 4 hr using a sonicator at room temperature. Solution clarity and quantitative solubility were observed.

Cc1ccccc1N1C(=O)c2cc(S(N)(=O)=O)c(Cl)cc2NC1C (centres unmarked) [Metolazone, 7-chloro-1,2,3,4-tetrahydro-2-methyl-3-(2-methylphenyl)-4-oxo-6-quinazoline sulfonamide]
Solubility of each trial ([1]; 028A: 20% Tertiary butyl alcohol and 80% water mixture [20:80]): 289 µg/mL and 281 µg/mL
Solubility of each trial ([1]; 028B: 30% Tertiary butyl alcohol and 70% water mixture [30:70]): 948 µg/mL and 1044 µg/mL
Solubility of each trial ([1]; 028C: 40% Tertiary butyl alcohol and 60% water mixture [40:60]): 2122 µg/mL and 2025 µg/mL
slope of metolazone solubility versus TBA fraction in solvent ([1]; FIG. 4): 0.0913
solubility ([1]; tertiary butyl alcohol/water mixture, 028A: 20% Tertiary butyl alcohol and 80% water mixture [20:80], read-out: Average solubility): 279 µg/mL
solubility ([1]; tertiary butyl alcohol/water mixture, 028A: 20% Tertiary butyl alcohol and 80% water mixture [20:80], read-out: Solubility of each trial): 267 µg/mL
solubility ([1]; tertiary butyl alcohol/water mixture, 028B: 30% Tertiary butyl alcohol and 70% water mixture [30:70], read-out: Average solubility): 1010 µg/mL
solubility ([1]; tertiary butyl alcohol/water mixture, 028B: 30% Tertiary butyl alcohol and 70% water mixture [30:70], read-out: Solubility of each trial): 1050 µg/mL
solubility ([1]; tertiary butyl alcohol/water mixture, 028C: 40% Tertiary butyl alcohol and 60% water mixture [40:60], read-out: Average solubility): 2110 µg/mL
solubility ([1]; tertiary butyl alcohol/water mixture, 028C: 40% Tertiary butyl alcohol and 60% water mixture [40:60], read-out: Solubility of each trial): 2170 µg/mL
solubility ([1]; tertiary butyl alcohol/water mixtures, TBA:water in the ratio of 30:70 to 40:60, read-out: solubility in solvent (TBA:water)): > 1000 µg/mL
Observations ([2]; Trial 1: WFI, 5.04 mg metolazone, Q.S. to 10 mL): Insoluble
Observations ([2]; Trial 2: 20% TBA, 10.08 mg metolazone, Q.S. to 20 mL): opalescent
Observations ([2]; Trial 3: 30% TBA, 15.12 mg metolazone, Q.S. to 20 mL): clear
Observations ([2]; Trial 4: 40% TBA, 30.24 mg metolazone, Q.S. to 20 mL): clear
Observations ([2]; Trial 5: 50% TBA, 30.24 mg metolazone, Q.S. to 20 mL): clear
Observations ([2]; Trial 6: 60% TBA, 30.24 mg metolazone, Q.S. to 20 mL): clear
Observations ([2]; Trial 7: 30% TBA, 20.16 mg metolazone, Q.S. to 20 mL): clear
solubility in ethanol [3]: 9000 µg/mL (≈ 24.6 mM)
solubility ([4]; 40% PEG in buffer, aqueous with cosolvent or surfactant or cyclodextrin, thermodynamic from solid, 40% PEG in all tested buffers, API with particle size D90<10 microns, read-out: solubility): > 1200 µg/mL
solubility ([4]; 40% PEG-400 and 0.4% Kolliphor HS-15 in Tris buffer, pH 7.5, aqueous with cosolvent or surfactant or cyclodextrin, thermodynamic from solid, Ex: III-4, 031D: 40% PEG-400 + Kolliphor HS-15 0.4% + Tris buffer pH 7.5, read-out: Solubility): 2310 µg/mL
solubility ([4]; 40% PEG-400 and 0.4% Kolliphor HS-15 in phosphate buffer, pH 7.5, aqueous with cosolvent or surfactant or cyclodextrin, thermodynamic from solid, Ex: III-3, 031C: 40% PEG-400 + Kolliphor HS-15 0.4% + Phosphate buffer pH 7.5, read-out: Solubility): 2160 µg/mL
solubility ([4]; 40% PEG-400 in Tris buffer, pH 7.5, aqueous with cosolvent or surfactant or cyclodextrin, thermodynamic from solid, Ex: III-2, 031B: 40% PEG-400 + Tris buffer pH 7.5, read-out: Solubility): 1280 µg/mL
solubility ([4]; 40% PEG-400 in phosphate buffer, pH 7.5, aqueous with cosolvent or surfactant or cyclodextrin, thermodynamic from solid, Ex: III-1, 031A: 40% PEG-400 + Phosphate buffer pH 7.5, API PSD 10 micron, sonicated up to 4 hr, room temperature, read-out: Solubility): 1800 µg/mL
solubility ([4]; Ex: III-1, 031A: 40% PEG-400 + Phosphate buffer pH 7.5, API PSD 10 micron, sonicated up to 4 hr, room temperature): 1862 µg/mL
solubility ([4]; tertiary butyl alcohol/water for injection mixture, aqueous with cosolvent or surfactant or cyclodextrin, thermodynamic from solid, Ex: III-5, 031E: 50% Tertiary butyl alcohol and 50% Water for injection, read-out: Solubility): 3120 µg/mL
